Laboratory results published in ChEMBL document CHEMBL5042554, “Discovery of Pyridone-Substituted Triazolopyrimidine Dual A2A/A1 AR Antagonists for the Treatment of Ischemic Stroke” (ACS Med Chem Lett, 2022).

Columns and labels:
Adenosine receptor A3 = molecular target: T1, Adenosine receptor A3 (Homo sapiens, UniProt P0DMS8); experiment: Displacement of [3H] NECA from human recombinant A3 receptor expressed in HeLa cells incubated for 180 mins by radioligand binding competition assay; assay type: cell-based
T1 sequence (P0DMS8 whole entry): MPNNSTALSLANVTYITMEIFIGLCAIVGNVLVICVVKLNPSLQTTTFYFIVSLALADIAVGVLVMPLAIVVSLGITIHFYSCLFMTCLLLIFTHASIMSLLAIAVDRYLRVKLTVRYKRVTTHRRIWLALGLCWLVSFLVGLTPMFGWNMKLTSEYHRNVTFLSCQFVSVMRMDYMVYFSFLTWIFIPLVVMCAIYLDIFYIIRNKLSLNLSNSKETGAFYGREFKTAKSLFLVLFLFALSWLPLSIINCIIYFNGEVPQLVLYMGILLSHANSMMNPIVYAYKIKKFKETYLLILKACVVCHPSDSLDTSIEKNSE

Adenosine receptor A2a [1] = molecular target: T2, Adenosine receptor A2a (Homo sapiens, UniProt P29274); experiment: Displacement of [3H] ZM241385 from human recombinant A2A adenosine receptor expressed in HeLa cells incubated for 30 mins by radioligand binding competition assay; assay type: cell-based
Adenosine receptor A1 [2] = molecular target: T3, Adenosine receptor A1 (Homo sapiens, UniProt P30542); experiment: Displacement of [3H] DPCPX from human recombinant A1 adenosine receptor expressed in CHO cells incubated for 60 mins by radioligand binding competition assay; assay type: cell-based
T3 sequence (P30542 whole entry): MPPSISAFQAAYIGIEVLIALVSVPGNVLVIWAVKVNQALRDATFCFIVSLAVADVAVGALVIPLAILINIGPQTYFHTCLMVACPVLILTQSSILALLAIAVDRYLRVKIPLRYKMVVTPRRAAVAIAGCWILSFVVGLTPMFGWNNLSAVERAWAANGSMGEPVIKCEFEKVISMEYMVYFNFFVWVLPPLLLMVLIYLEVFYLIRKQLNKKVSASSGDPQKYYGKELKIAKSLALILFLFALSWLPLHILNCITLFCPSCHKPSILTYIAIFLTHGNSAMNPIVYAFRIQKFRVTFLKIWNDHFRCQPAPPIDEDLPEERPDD

Adenosine receptor A2b = molecular target: T4, Adenosine receptor A2b (Homo sapiens, UniProt P29275); experiment: Displacement of [3H] DPCPX from human recombinant A2B adenosine receptor expressed in HEK293 cells incubated for 30 mins by radioligand binding competition assay; assay type: cell-based
T4 sequence (P29275 whole entry): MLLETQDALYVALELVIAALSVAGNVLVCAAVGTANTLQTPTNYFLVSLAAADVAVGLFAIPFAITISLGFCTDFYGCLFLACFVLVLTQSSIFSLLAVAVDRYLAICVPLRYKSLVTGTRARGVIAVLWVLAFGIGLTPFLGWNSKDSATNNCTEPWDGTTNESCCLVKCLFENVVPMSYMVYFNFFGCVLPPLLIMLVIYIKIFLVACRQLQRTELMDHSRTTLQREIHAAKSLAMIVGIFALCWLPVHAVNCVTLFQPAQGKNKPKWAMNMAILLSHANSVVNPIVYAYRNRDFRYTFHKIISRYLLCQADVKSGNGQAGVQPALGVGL

Adenosine receptor A2a [3] = molecular target: T2, Adenosine receptor A2a; experiment: Antagonist activity at human recombinant adenosine A2A receptor transfected in HEK293 cells co-transfected with Galpha15/16 assessed as intracellular calcium change incubated for 10 mins by microplate reader method; assay type: functional, cell-based
Adenosine receptor A1 [4] = molecular target: T3, Adenosine receptor A1; experiment: Antagonist activity at human recombinant adenosine A1 receptor transfected in HEK293 cells co-transfected with Galpha15/16 assessed as intracellular calcium change incubated for 10 mins by microplate reader method; assay type: functional, cell-based

T2 sequence (P29274 whole entry): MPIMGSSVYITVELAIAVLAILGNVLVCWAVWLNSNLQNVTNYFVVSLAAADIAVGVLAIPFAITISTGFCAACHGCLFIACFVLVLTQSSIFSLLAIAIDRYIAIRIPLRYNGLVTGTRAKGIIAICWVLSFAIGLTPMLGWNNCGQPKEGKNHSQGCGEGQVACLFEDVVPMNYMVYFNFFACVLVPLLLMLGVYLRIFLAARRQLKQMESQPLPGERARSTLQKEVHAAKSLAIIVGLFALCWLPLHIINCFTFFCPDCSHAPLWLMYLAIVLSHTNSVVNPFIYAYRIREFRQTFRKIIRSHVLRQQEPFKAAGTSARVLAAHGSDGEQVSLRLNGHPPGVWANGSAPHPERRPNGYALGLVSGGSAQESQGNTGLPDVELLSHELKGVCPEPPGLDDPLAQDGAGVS

Row | SMILES | Ki (Adenosine receptor A3) | Ki (Adenosine receptor A2a [1]) | Ki (Adenosine receptor A1 [2]) | Ki (Adenosine receptor A2b) | IC50 (Adenosine receptor A2a [3]) | IC50 (Adenosine receptor A1 [4])
1 | Cn1cc(-c2cnc(N)n3nc(-c4nccs4)nc23)ccc1=O | > 10000 nM | 84.6 nM | 78 nM | 1590 nM | – | –
2 | Cc1cccc(-c2nc3c(-c4ccc(=O)n(C)c4)cnc(N)n3n2)n1 | > 10000 nM | 3770 nM | 1720 nM | > 10000 nM | – | –
3 | Cc1ccc(-c2nc3c(-c4ccc(=O)n(C)c4)cnc(N)n3n2)o1 | 2960 nM | 448 nM | 88.4 nM | > 10000 nM | – | –
4 | Cn1ccc(-c2nc3c(-c4ccc(=O)n(C)c4)cnc(N)n3n2)n1 | > 10000 nM | 3430 nM | 722 nM | > 10000 nM | – | –
5 | Cn1nccc1-c1nc2c(-c3ccc(=O)n(C)c3)cnc(N)n2n1 | > 10000 nM | 797 nM | 2970 nM | > 10000 nM | – | –
6 | Cc1cnc(-c2nc3c(-c4ccc(=O)n(C)c4)cnc(N)n3n2)s1 | 2930 nM | 43.9 nM | 21.9 nM | 9920 nM | – | –
7 | Cn1cc(-c2cnc(N)n3nc(-c4ccco4)nc23)ccc1=O | – | 5.58 nM | 24.2 nM | 491 nM | 5.72 nM | 25.9 nM
8 | Cn1cc(-c2cnc(N)nc2-c2ccco2)ccc1=O | > 10000 nM | 26.9 nM | 88.6 nM | 58.9 nM | – | –
9 | Cn1cc(-c2cnc(N)n3nc(-c4ccccn4)nc23)ccc1=O | > 10000 nM | 62.4 nM | 37.6 nM | > 10000 nM | – | –
10 | Cc1csc(-c2nc3c(-c4ccc(=O)n(C)c4)cnc(N)n3n2)n1 | > 10000 nM | 1030 nM | 926 nM | > 10000 nM | – | –
